Patent US7494997B2, “Amide derivative” (Nippon Shinyaku Co., Ltd., priority 2002, dated 2009)

Tests used:
K562 cells = assay: Cell growth inhibitory effect, K562 cells (WST-8, 72 hours); details: for IC50: Homo sapiens, K562, 72 h, read-out: K562 cells (IC50 value: μM); for Ratio (U937 cells/K562 cells): ratio of IC50 values U937 cells/K562 cells
E255K mutant BCR-ABL = target: T1, E255K mutant BCR-ABL (Homo sapiens, UniProt P00519, E255K); assay: Self-phosphorylation inhibitory effect on mutant (E255K) BCR-ABL in transfected 293T cells (Western blot, PY99); assay type: cell-based; details: 2 hours
T1 construct: expressed in transfected cells; host or cells: 293T cells (ATCC), Lipofectamine transfection; the other entry of the earlier key: BCR (P11274, Breakpoint cluster region protein)
Procedure: The cells were seeded in an amount of 5 ml in a Poly-L-Lysin coated 6 cm dish so as to give 1.2×10^6 cells/well. […] Using a Lipofectamine reagent (manufactured by Invitrogen), 2 μg of E255K mutant bcr-abl gene expression vector was transfected into the cell. […] The dish was incubated in a CO2 incubator for 2 hours. After treatment with trypsin, the cells were collected into a 15 ml centrifuge tube. The tube was centrifuged at 1000 rpm at room temperature for one minute. After removal of the medium, 50 μl of a cell lysis solution was added. The cells were subjected to cytolysis with a mixer. The tube was left to stand at 4° C. for 15 minutes and transferred to 1.5 ml tube. The tube was centrifuged at 12,000 rpm at 4° C. for 15 minutes. The cell lysate was collected into another 1.5 ml tube. The concentration of protein was measured according to BCA method. The samples of cell lysate containing […] of protein was analyzed by SDS-PAGE polyacrylamide. After electrophoresis, the protein was transferred onto a nylon filter (Hybond-P) with wet method at 4° C. overnight. The nylon filter was reacted in 10 ml of PBS/0.1% Tween-20 containing 0.2 μg/ml anti-phosphorylation tyrosin kinase antibody (PY99) (manufactured by Toyobo) at room temperature for one hour. The nylon filter was washed with PBS three times and then reacted 10 ml of PBS/0.1% Tween-20 containing 0.4 μg/ml Anti-mouse IgG AP-conjugated (manufactured by Cell Signaling) at room temperature for one hour. After the nylon filter was washed with PBS four times, self-phosphorylation of p210 BCR-ABL was detected with alkaline phosphatase color developing reagent.
The results are shown as follows: +++: almost perfectly inhibition of phosphorylation; ++: around half of inhibition; +: week inhibition; and −: no inhibition.

U937 cells = assay: Cell growth inhibitory effect, U937 cells (WST-8, 72 hours); details: Homo sapiens, U-937, 72 h, read-out: U937 cells (IC50 value: μM)

T1 sequence (P00519 28-1130 E255K limits assumed): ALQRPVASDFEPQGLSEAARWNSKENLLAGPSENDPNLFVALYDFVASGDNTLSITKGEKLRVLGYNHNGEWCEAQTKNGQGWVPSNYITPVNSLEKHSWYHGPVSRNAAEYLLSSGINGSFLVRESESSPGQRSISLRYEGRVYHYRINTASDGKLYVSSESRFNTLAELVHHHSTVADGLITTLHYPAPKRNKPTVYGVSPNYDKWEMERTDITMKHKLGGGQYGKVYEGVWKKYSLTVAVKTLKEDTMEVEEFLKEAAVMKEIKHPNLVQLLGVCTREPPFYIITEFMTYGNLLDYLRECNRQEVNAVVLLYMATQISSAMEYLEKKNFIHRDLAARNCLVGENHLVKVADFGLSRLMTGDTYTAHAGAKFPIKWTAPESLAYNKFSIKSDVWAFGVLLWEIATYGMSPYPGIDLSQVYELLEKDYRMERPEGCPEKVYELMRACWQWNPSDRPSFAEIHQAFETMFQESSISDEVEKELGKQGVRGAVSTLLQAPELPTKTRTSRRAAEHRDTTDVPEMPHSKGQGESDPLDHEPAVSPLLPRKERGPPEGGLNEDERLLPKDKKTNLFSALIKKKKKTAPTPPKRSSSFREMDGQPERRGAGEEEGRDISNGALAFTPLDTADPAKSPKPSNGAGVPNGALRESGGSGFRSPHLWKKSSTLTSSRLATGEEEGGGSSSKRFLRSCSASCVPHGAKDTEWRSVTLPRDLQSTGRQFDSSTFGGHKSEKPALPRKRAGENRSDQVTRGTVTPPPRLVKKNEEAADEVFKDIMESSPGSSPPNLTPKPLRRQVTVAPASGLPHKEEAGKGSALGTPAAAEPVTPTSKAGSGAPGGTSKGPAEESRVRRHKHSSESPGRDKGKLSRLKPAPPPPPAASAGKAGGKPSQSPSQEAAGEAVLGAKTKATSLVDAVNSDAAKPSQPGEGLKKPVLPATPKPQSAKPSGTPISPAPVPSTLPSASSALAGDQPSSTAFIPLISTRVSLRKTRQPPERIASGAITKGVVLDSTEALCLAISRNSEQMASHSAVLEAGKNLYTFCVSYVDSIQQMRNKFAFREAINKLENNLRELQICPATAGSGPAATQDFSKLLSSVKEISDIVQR

## Cc1ccc(NC(=O)c2ccc(CN3CCN(C)CC3)c(I)c2)cc1Nc1nccc(-c2cccnc2)n1 [Example 2, 3-iodo-4-(4-methylpiperazin-1-ylmethyl)-N-{4-methyl-3-[4-(3-pyridyl)pyrimidin-2-ylamino]phenyl}benzamide]
K562 cells
  IC50: 0.0023 µM
  Ratio (U937 cells/K562 cells): 1452.2
E255K mutant BCR-ABL; 1 μM
  Self-phosphorylation inhibitory effect on E255K mutant BCR-ABL: +
E255K mutant BCR-ABL; 3 μM
  Self-phosphorylation inhibitory effect on E255K mutant BCR-ABL: ++
E255K mutant BCR-ABL; 10 μM
  Self-phosphorylation inhibitory effect on E255K mutant BCR-ABL: +++
other
  melting point: 199 to 200 °C (dec.)
U937 cells
  IC50: 3.34 µM

## Cc1ccc(NC(=O)c2ccc(CN3CCN(C)CC3)c(Cl)c2)cc1Nc1nccc(-c2cccnc2)n1 [Example 3, 3-chloro-4-(4-methylpiperazin-1-ylmethyl)-N-{4-methyl-3-[4-(3-pyridyl)pyrimidin-2-ylamino]phenyl}benzamide]
K562 cells
  IC50: 0.0046 µM
  Ratio (U937 cells/K562 cells): 1089.1
E255K mutant BCR-ABL; 1 μM
  Self-phosphorylation inhibitory effect on E255K mutant BCR-ABL: −
E255K mutant BCR-ABL; 3 μM
  Self-phosphorylation inhibitory effect on E255K mutant BCR-ABL: +
E255K mutant BCR-ABL; 10 μM
  Self-phosphorylation inhibitory effect on E255K mutant BCR-ABL: +++
other
  melting point: 193 to 194 °C (dec.)
U937 cells
  IC50: 5.01 µM

## Cc1ccc(NC(=O)c2ccc(CN3CCN(C)CC3)c(Br)c2)cc1Nc1nccc(-c2cnccn2)n1 [Example 7, 3-bromo-4-(4-methylpiperazin-1-ylmethyl)-N-{4-methyl-3-[4-(2-pyrazinyl)pyrimidin-2-ylamino]phenyl}benzamide]
K562 cells
  IC50: 0.0054 µM
  Ratio (U937 cells/K562 cells): 1205.6
E255K mutant BCR-ABL; 1 μM
  Self-phosphorylation inhibitory effect on E255K mutant BCR-ABL: −
E255K mutant BCR-ABL; 3 μM
  Self-phosphorylation inhibitory effect on E255K mutant BCR-ABL: ++
E255K mutant BCR-ABL; 10 μM
  Self-phosphorylation inhibitory effect on E255K mutant BCR-ABL: +++
other
  melting point: 213 to 214 °C (dec.)
U937 cells
  IC50: 6.51 µM

## Cc1ccc(NC(=O)c2ccc(CN3CCN(C)CC3)c(Br)c2)cc1Nc1nccc(-c2cncc(Br)c2)n1 [Example 9, 3-bromo-4-(4-methylpiperazin-1-ylmethyl)-N-{3-[4-(5-bromopyridin-3-yl)pyrimidin-2-ylamino]-4-methylphenyl}benzamide]
K562 cells
  IC50: 0.0017 µM
  Ratio (U937 cells/K562 cells): 1094.1
E255K mutant BCR-ABL; 1 μM
  Self-phosphorylation inhibitory effect on E255K mutant BCR-ABL: +
E255K mutant BCR-ABL; 3 μM
  Self-phosphorylation inhibitory effect on E255K mutant BCR-ABL: ++
E255K mutant BCR-ABL; 10 μM
  Self-phosphorylation inhibitory effect on E255K mutant BCR-ABL: +++
other
  melting point: 194 to 195 °C (dec.)
U937 cells
  IC50: 1.86 µM

## Cc1ccc(NC(=O)c2ccc(CN3CCN(C)CC3)c(C(F)(F)F)c2)cc1Nc1nccc(-c2cncc(Br)c2)n1 [Example 10, 4-(4-methylpiperazin-1-ylmethyl)-3-trifluoromethyl-N-{3-[4-(5-bromopyridin-3-yl)pyrimidin-2-ylamino]-4-methylphenyl}benzamide]
K562 cells
  IC50: 0.0014 µM
  Ratio (U937 cells/K562 cells): 2335.7
E255K mutant BCR-ABL; 0.1 μM
  Self-phosphorylation inhibitory effect on E255K mutant BCR-ABL: −
E255K mutant BCR-ABL; 0.3 μM
  Self-phosphorylation inhibitory effect on E255K mutant BCR-ABL: −
E255K mutant BCR-ABL; 1 μM
  Self-phosphorylation inhibitory effect on E255K mutant BCR-ABL: ++
E255K mutant BCR-ABL; 3 μM
  Self-phosphorylation inhibitory effect on E255K mutant BCR-ABL: +++
E255K mutant BCR-ABL; 10 μM
  Self-phosphorylation inhibitory effect on E255K mutant BCR-ABL: +++
other
  melting point: 171 to 173 °C (dec.)
U937 cells
  IC50: 3.27 µM

## Cc1ccc(NC(=O)c2ccc(CN3CCN(C)CC3)c(Br)c2)cc1Nc1nccc(-c2cncnc2)n1 [Example 13, 3-bromo-4-(4-methylpiperazin-1-ylmethyl)-N-{4-methyl-3-[4-(5-pyrimidinyl)pyrimidin-2-ylamino]phenyl}benzamide]
K562 cells
  IC50: 0.0012 µM
  Ratio (U937 cells/K562 cells): 5166.7
E255K mutant BCR-ABL; 0.1 μM
  Self-phosphorylation inhibitory effect on E255K mutant BCR-ABL: −
E255K mutant BCR-ABL; 0.3 μM
  Self-phosphorylation inhibitory effect on E255K mutant BCR-ABL: +
E255K mutant BCR-ABL; 1 μM
  Self-phosphorylation inhibitory effect on E255K mutant BCR-ABL: ++
E255K mutant BCR-ABL; 3 μM
  Self-phosphorylation inhibitory effect on E255K mutant BCR-ABL: +++
E255K mutant BCR-ABL; 10 μM
  Self-phosphorylation inhibitory effect on E255K mutant BCR-ABL: +++
other
  melting point: 238 to 240 °C (dec.)
U937 cells
  IC50: 6.2 µM
